Where “and” joins values, the source holds several entries; their conditions need not be identical. Identical values can stand only once. Like-named read-outs stand apart in the source and are kept apart here.
Experiments:
[1] = Solubility of ICG-NHS (no dPEG); assay type: physicochemical; settings: 10% DMAC (our work)
From the text: Soluble in 10% DMSO (lit) or DMAC (our work)

[2] = 10% DMSO (lit); cited from earlier work
[3] = Behaviour of unreacted reagent on spin columns in PBS (aggregation); assay type: physicochemical; settings: no MAG control
From the text: Reacted with MAG but couldn't separate unreacted reagent on spin columns in PBS

[4] = molecular target: Human Serum Albumin (HSA) (Homo sapiens, UniProt P02768); assay: Fluorescence increase on addition to 4% HSA solution (HSA complex formation); assay type: binding
Experimental: ICG is a hydrophobic molecule that forms a tight complex with Human Serum Albumin (HSA). The fluorescence of ICG increased ˜10 fold, as expected, when it was added to a 4% HSA solution. When ICG is conjugated to a protein, it loses its ability to form tight HAS complexes, as confirmed in our experiments where the fluorescence of ICG-IgG (no dPEG) increased by only a factor of ˜2 when added to 4% HSA. We hypothesized that ICG might still be able to bind to HSA when it was bound to IgG through a dPEG12 linker.

[5] = Conjugation of ICG reagents with IgG: maximal ICG incorporation without losing the protein; assay type: physicochemical; settings: reaction with MAG in 10% DMAC
From the text: The maximal number of ICGs using this reagent that can be incorporated into an IgG without losing the protein is 4-5 ICG/IgG (FIG. 18). A similar number of ICGs from ICG-NHS, the reagent without dPEG, can be substituted into IgG (FIG. 19).
c. Conjugation of ICG-dPEG12-NHS with MAG (Mouse Anti-Goat IgG Antibody)
MAG reacted with different concentrations of ICG-dPEG12-NHS in 10% DMAC
Product purified over two G50 spin columns in PBS
[IgG] and ICG/IgG molar ratios determined from A (770 nm) and A (280) nm
Lose most of protein when [ICG-dPEG12-NHS] in the reaction is ≧0.2 mM
Highest incorporation: ICG/IgG˜5

Human Serum Albumin (HSA), sequence (P02768 25-609): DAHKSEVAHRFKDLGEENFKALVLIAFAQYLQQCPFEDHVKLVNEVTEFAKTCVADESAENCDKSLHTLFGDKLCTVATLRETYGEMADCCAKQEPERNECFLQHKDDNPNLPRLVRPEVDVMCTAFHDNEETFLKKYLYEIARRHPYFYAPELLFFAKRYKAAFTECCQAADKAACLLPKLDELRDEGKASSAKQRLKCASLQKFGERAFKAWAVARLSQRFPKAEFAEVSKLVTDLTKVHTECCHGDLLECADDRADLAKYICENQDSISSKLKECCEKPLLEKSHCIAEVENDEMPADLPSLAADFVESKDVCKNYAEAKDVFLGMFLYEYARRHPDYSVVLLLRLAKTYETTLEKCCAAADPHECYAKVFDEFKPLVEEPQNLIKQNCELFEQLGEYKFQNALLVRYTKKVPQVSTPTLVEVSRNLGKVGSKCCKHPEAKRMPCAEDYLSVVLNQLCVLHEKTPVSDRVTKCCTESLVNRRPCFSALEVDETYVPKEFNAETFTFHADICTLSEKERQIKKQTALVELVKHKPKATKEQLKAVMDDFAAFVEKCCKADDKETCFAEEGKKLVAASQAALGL

CC1(C)C(/C=C/C=C/C=C/C=C2\N(CCCCS(=O)(=O)[O-])c3ccc4ccccc4c3C2(C)C)=[N+](CCCCCC(=O)ON2C(=O)CCC2=O)c2ccc3ccccc3c21 [ICG-NHS]
solubility [1]: Soluble
solubility [2]: Soluble
aggregation of unreacted reagent [3]: apparently forms aggregates

CC1(C)C(/C=C/C=C/C=C/C=C2\N(CCCCS(=O)(=O)[O-])c3ccc4ccccc4c3C2(C)C)=[N+](CCCCS(=O)(=O)[O-])c2ccc3ccccc3c21.[Na+] [ICG]
increase of fluorescence when added to 4% HSA [4]: ~10 fold

dPEG12-NHS ester)-1,1-dimethyl-benzoindoliden-hepta-1,3,5-trienyl-(1,1-dimethyl-benzoindolium butane sulfonate) [ICG-dPEG12-NHS]
maximal number of ICGs that can be incorporated into an IgG without losing the protein / highest incorporation [5]: 4-5 ICG/IgG and ~5 ICG/IgG

From patent US20150073154A1, “Discrete PEG Based Dyes” (EquIP, LLC, priority 2013, published 2015)
